In PubChem BioAssay AID256 (DTP/NCI, 2004):
Several values for one entry are separate records, joined by “and”; a condition that tells them apart may be missing. Equal entries are not always repeated. Toxic doses and inconclusive results are not listed. Rule for the calls: active = survival T/C of 150% or more; inactive = T/C below 125% in these data.

Tested on: CD2F1 mice, L1210 leukemia ip, survival T/C
Assay: NCI In Vivo Anticancer Drug Screen. Data for tumor model L1210 Leukemia (intraperitoneal) in CD2F1 (CDF1) mice
Conditions: higher = longer survival
Summary of the method: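 Vehicle-treated tumor-bearing mice served as controls (C) for compound-treated mice (T). Reported figure is T divided by C.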

[1] = endpoint: median survival time, dose: 50.0 mg/kg/injection, schedule: Q04DX002 (ip), vehicle: saline with Tween-80
[2] = endpoint: median survival time, dose: 100.0 mg/kg/injection, schedule: Q04DX002 (ip), vehicle: saline with Tween-80
[3] = endpoint: median survival time, dose: 200.0 mg/kg/injection, schedule: Q04DX002 (ip), vehicle: saline with Tween-80
[4] = endpoint: mean survival time, dose: 50.0 mg/kg/injection, schedule: Q04DX002 (ip), vehicle: saline with Tween-80
[5] = endpoint: mean survival time, dose: 200.0 mg/kg/injection, schedule: Q04DX002 (ip), vehicle: saline with Tween-80
[6] = endpoint: mean survival time, dose: 400.0 mg/kg/injection, schedule: Q04DX002 (ip), vehicle: saline with Tween-80
[7] = endpoint: mean survival time, dose: 100.0 mg/kg/injection, schedule: Q04DX003 (ip), vehicle: saline with Tween-80
[8] = endpoint: mean survival time, dose: 200.0 mg/kg/injection, schedule: Q04DX003 (ip), vehicle: saline with Tween-80
[9] = endpoint: mean survival time, dose: 400.0 mg/kg/injection, schedule: Q04DX003 (ip), vehicle: saline with Tween-80
[10] = endpoint: mean survival time, dose: 100.0 mg/kg/injection, schedule: Q01DX009 (ip), vehicle: saline
[11] = endpoint: mean survival time, dose: 200.0 mg/kg/injection, schedule: Q01DX009 (ip), vehicle: saline
[12] = endpoint: mean survival time, dose: 400.0 mg/kg/injection, schedule: Q01DX009 (ip), vehicle: saline
[13] = endpoint: mean survival time, dose: 100.0 mg/kg/injection, schedule: Q04DX002 (ip), vehicle: saline with Tween-80
[14] = endpoint: mean survival time, dose: 100.0 mg/kg/injection, schedule: Q01DX009 (ip), vehicle: saline with Tween-80
[15] = endpoint: mean survival time, dose: 200.0 mg/kg/injection, schedule: Q01DX009 (ip), vehicle: saline with Tween-80
[16] = endpoint: mean survival time, dose: 400.0 mg/kg/injection, schedule: Q01DX009 (ip), vehicle: saline with Tween-80
[17] = endpoint: mean survival time, dose: 25.0 mg/kg/injection, schedule: Q04DX002 (ip), vehicle: saline with Tween-80

Measured: T/C

Cc1ccc(C(=O)CCl)c(C)c1
inactive: endpoint: mean survival time, dose: 25.0 mg/kg/injection, schedule: Q04DX003 (ip), vehicle: Klucel (hydroxypropylcellulose) (HPC) 102 % of control | endpoint: mean survival time, dose: 50.0 mg/kg/injection, schedule: Q04DX003 (ip), vehicle: Klucel (hydroxypropylcellulose) (HPC) 103 % of control

O=C(c1ccccc1)C(Sc1ccccc1)Sc1ccccc1
inactive: [1] 100 % of control | [2] 100 % of control | [3] 100 % of control | endpoint: median survival time, dose: 400.0 mg/kg/injection, schedule: Q04DX002 (ip), vehicle: saline with Tween-80 110 % of control

COC(=O)c1ccccc1NCCNc1ccccc1C(=O)OC
inactive: [4] 100 % of control | [5] 95 % of control | [6] 88 % of control

Nc1ncnc2c1c1c(=O)[nH]cnc1n2C1OC(CO)C(O)C1O (stereo not given)
inactive: endpoint: mean survival time, dose: 6.25 mg/kg/injection, schedule: Q01DX005 (ip), vehicle: Klucel (hydroxypropylcellulose) (HPC) 98 % of control | endpoint: mean survival time, dose: 12.5 mg/kg/injection, schedule: Q01DX005 (ip), vehicle: Klucel (hydroxypropylcellulose) (HPC) 104 % of control | endpoint: mean survival time, dose: 25.0 mg/kg/injection, schedule: Q01DX005 (ip), vehicle: Klucel (hydroxypropylcellulose) (HPC) 108 % of control | endpoint: mean survival time, dose: 50.0 mg/kg/injection, schedule: Q01DX005 (ip), vehicle: Klucel (hydroxypropylcellulose) (HPC) 115 % of control | endpoint: mean survival time, dose: 100.0 mg/kg/injection, schedule: Q01DX005 (ip), vehicle: Klucel (hydroxypropylcellulose) (HPC) 120 % of control

CCCCC[CH2][Sn](=[O])[CH2]CCCCC
inactive: [7] 100 % of control | [8] 97 % of control | [9] 111 % of control

O=c1[nH]c(=O)c2nc(-c3cccnc3)cnc2[nH]1
inactive: endpoint: mean survival time, dose: 12.5 mg/kg/injection, schedule: Q01DX009 (ip), vehicle: saline 98 % of control and 103 % of control | endpoint: mean survival time, dose: 25.0 mg/kg/injection, schedule: Q01DX009 (ip), vehicle: saline 101 % of control and 102 % of control | endpoint: mean survival time, dose: 50.0 mg/kg/injection, schedule: Q01DX009 (ip), vehicle: saline 93 % of control and 104 % of control | [10] 98 % of control and 110 % of control | [11] 101 % of control and 110 % of control | [12] 114 % of control and 102 % of control

COc1ccc(CCNC(=S)NC(=O)c2cc(OC)c(OC)c(OC)c2)cc1OC
inactive: [13] 87 % of control | [5] 97 % of control | [6] 102 % of control

CCOC(=O)Nc1cc(F)cc(C(F)(F)F)c1F
inactive: [14] 97 % of control | [15] 97 % of control | [16] 109 % of control

CCCCCCCCCCCSCCCCCCCCCCC
inactive: [14] 104 % of control | [7] 98 % of control | [15] 103 % of control | [8] 101 % of control | [16] 103 % of control | [9] 98 % of control

CCOC/C(O)=C(\C#N)c1cccc(Cl)c1
inactive: endpoint: mean survival time, dose: 25.0 mg/kg/injection, schedule: Q01DX001 (ip), vehicle: other 105 % of control | endpoint: mean survival time, dose: 50.0 mg/kg/injection, schedule: Q01DX001 (ip), vehicle: other 102 % of control | endpoint: mean survival time, dose: 100.0 mg/kg/injection, schedule: Q01DX001 (ip), vehicle: other 102 % of control | endpoint: mean survival time, dose: 200.0 mg/kg/injection, schedule: Q01DX001 (ip), vehicle: other 101 % of control

C(#Cc1ccccc1)c1ccccc1.Cc1ccc([PH+](c2ccccc2)c2ccccc2)cc1.Cc1ccc([PH+](c2ccccc2)c2ccccc2)cc1.[Pt]
inactive: endpoint: median survival time, dose: 3.13 mg/kg/injection, schedule: Q04DX003 (ip), vehicle: distilled water + Tween-80 100 % of control | endpoint: median survival time, dose: 6.25 mg/kg/injection, schedule: Q04DX003 (ip), vehicle: distilled water + Tween-80 101 % of control | endpoint: median survival time, dose: 12.5 mg/kg/injection, schedule: Q04DX003 (ip), vehicle: distilled water + Tween-80 105 % of control | endpoint: median survival time, dose: 25.0 mg/kg/injection, schedule: Q04DX003 (ip), vehicle: distilled water + Tween-80 89 % of control | endpoint: median survival time, dose: 50.0 mg/kg/injection, schedule: Q04DX003 (ip), vehicle: distilled water + Tween-80 90 % of control | endpoint: median survival time, dose: 100.0 mg/kg/injection, schedule: Q04DX003 (ip), vehicle: distilled water + Tween-80 94 % of control

COc1ccccc1NC(=O)CSC(N)=O
inactive: endpoint: mean survival time, dose: 50.0 mg/kg/injection, schedule: Q01DX001 (ip), vehicle: saline 98 % of control | endpoint: mean survival time, dose: 100.0 mg/kg/injection, schedule: Q01DX001 (ip), vehicle: saline 97 % of control | [10] 102 % of control | endpoint: mean survival time, dose: 100.0 mg/kg/injection, schedule: Q04DX003 (ip), vehicle: saline 94 % of control | endpoint: mean survival time, dose: 200.0 mg/kg/injection, schedule: Q01DX001 (ip), vehicle: saline 103 % of control | [11] 93 % of control | endpoint: mean survival time, dose: 200.0 mg/kg/injection, schedule: Q04DX003 (ip), vehicle: saline 91 % of control | endpoint: mean survival time, dose: 400.0 mg/kg/injection, schedule: Q01DX001 (ip), vehicle: saline 97 % of control | [12] 96 % of control | endpoint: mean survival time, dose: 400.0 mg/kg/injection, schedule: Q04DX003 (ip), vehicle: saline 91 % of control

C=CCOc1ccc(OC)cc1
inactive: [7] 97 % of control | [8] 97 % of control | [9] 92 % of control

N#CC(=C1CCN(Cc2ccccc2)CC1)c1ccccc1
inactive: [1] 100 % of control | [2] 100 % of control | [3] 111 % of control

O=C(CCl)c1cnc2ccccc2n1
inactive: endpoint: mean survival time, dose: 5.0 mg/kg/injection, schedule: Q01DX001 (ip), vehicle: saline 91 % of control | endpoint: mean survival time, dose: 10.0 mg/kg/injection, schedule: Q01DX001 (ip), vehicle: saline 94 % of control | endpoint: mean survival time, dose: 20.0 mg/kg/injection, schedule: Q01DX001 (ip), vehicle: saline 95 % of control

CN(C)C(=S)SCc1ccc(Cl)cc1
inactive: endpoint: mean survival time, dose: 100.0 mg/kg/injection, schedule: Q04DX003 (ip), vehicle: other 93 % of control | endpoint: mean survival time, dose: 200.0 mg/kg/injection, schedule: Q04DX003 (ip), vehicle: other 102 % of control | endpoint: mean survival time, dose: 400.0 mg/kg/injection, schedule: Q04DX003 (ip), vehicle: other 100 % of control

CCOC(=O)NCCBr
inactive: endpoint: mean survival time, dose: 37.5 mg/kg/injection, schedule: Q01DX007 (ip), vehicle: saline 88 % of control | endpoint: mean survival time, dose: 75.0 mg/kg/injection, schedule: Q01DX007 (ip), vehicle: saline 97 % of control | endpoint: mean survival time, dose: 150.0 mg/kg/injection, schedule: Q01DX007 (ip), vehicle: saline 92 % of control

CN1C(=O)C2CCC1C(O)C2 (stereo not given)
inactive: [17] 98 % of control | [4] 106 % of control | [13] 98 % of control | [5] 95 % of control

CCCCCCCCCCCCCCCCCC[N+](CCO)(CCO)Cc1ccc(C[N+](CCO)(CCO)CCCCCCCCCCCCCCCCCC)cc1
inactive: endpoint: mean survival time, dose: 12.5 mg/kg/injection, schedule: Q04DX002 (ip), vehicle: saline with Tween-80 101 % of control | [17] 101 % of control | [4] 89 % of control

CC1=CC(CO)C2C(=O)NC(=O)C2C1C (stereo not given)
inactive: endpoint: mean survival time, dose: 100.0 mg/kg/injection, schedule: Q01DX001 (ip), vehicle: Klucel (hydroxypropylcellulose) (HPC) 98 % of control | endpoint: mean survival time, dose: 200.0 mg/kg/injection, schedule: Q01DX001 (ip), vehicle: Klucel (hydroxypropylcellulose) (HPC) 105 % of control | endpoint: mean survival time, dose: 400.0 mg/kg/injection, schedule: Q01DX001 (ip), vehicle: Klucel (hydroxypropylcellulose) (HPC) 105 % of control
